Activity calls are given as the source filed them. How the calls were made is not given here.
System: INS-1E rat insulinoma, insulin secretion, 5 mM glucose
Assay: dose-response inhibition of insulin secretion, INS-1E rat insulinoma line, 5 mM glucose, cell-based (AID 1117331)

## Cc1ccc([N+](=O)[O-])[c]2c1[O][Hg]2
  IC50: > 33.3 µM (inactive)
